# Measurements reported in ChEMBL document CHEMBL4732267, “Novel Substituted Exomethylene-oxindoles as HPK1 Inhibitors” (ACS Med Chem Lett, 2021).
# pIC50: −log10 of the molar value.
# Molecular target: Mitogen-activated protein kinase kinase kinase kinase 1 (Homo sapiens, UniProt Q92918)
# Assay: Inhibition of recombinant human HPK1 expressed in baculovirus infected insect cells using SRKS1 peptide as substrate incubated for 15 mins followed by substrate addition and measured after 3 hrs by TR-FRET assay
# Mitogen-activated protein kinase kinase kinase kinase 1, sequence (Q92918 whole entry): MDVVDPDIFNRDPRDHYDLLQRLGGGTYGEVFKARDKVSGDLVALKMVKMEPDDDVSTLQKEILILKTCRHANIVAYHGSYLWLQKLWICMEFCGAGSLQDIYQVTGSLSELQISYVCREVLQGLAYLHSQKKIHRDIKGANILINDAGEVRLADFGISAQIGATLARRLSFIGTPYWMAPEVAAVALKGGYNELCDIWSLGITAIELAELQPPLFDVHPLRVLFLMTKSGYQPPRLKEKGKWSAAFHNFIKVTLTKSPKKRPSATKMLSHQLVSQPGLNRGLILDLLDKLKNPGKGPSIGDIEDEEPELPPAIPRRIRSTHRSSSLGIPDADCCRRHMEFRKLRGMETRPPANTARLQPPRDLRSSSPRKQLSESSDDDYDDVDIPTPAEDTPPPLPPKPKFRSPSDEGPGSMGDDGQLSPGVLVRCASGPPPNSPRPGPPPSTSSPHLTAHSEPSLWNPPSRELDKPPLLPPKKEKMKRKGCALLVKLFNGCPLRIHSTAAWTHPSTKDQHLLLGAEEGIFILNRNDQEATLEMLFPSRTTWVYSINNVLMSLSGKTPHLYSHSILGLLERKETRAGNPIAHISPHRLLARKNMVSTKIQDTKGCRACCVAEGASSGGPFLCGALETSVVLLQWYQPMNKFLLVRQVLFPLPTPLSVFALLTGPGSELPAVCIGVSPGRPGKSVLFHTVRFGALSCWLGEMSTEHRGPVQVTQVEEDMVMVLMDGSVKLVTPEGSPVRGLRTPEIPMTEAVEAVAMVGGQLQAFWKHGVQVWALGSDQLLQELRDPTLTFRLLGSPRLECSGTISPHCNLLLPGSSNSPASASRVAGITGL
structure (smiles),measurement,value
Cc1c(-c2cc(F)c3c(c2)/C(=C/c2ccc(C4CC4)[nH]2)C(=O)N3)cnc2c1NCCO2,pIC50,10.30
